Source: patent publication US9458437B2, “Neuroprotective peptides that inhibit interaction between palmitoyl acyl transferase zinc-finger DHHC type containing 17 (zD17) and c-jun N-terminal kinase (JNK)” (The University of British Columbia, priority 2011, dated 2016)

Tests used:
neuronal cultures = assay: LDH assay and PI staining, NMDA excitotoxicity-induced neuronal cell death; type: cell-based, rat; settings: for excitotoxicity-induced cell death as measured by LDH release and PI staining: pretreatment, NMDA challenge 1 h, 24 h survival
Description: For biochemical studies, neurons were seeded in six-well culture plates with a density of 7.5×10^5 cells per well. For LDH assay and cell death detection, 24-well culture plates were used with a neuron density of 2.5×10^5 cells per well. Neurons of 14-17 days in vitro (DIV) were used for experiments. […] HEK 293 cells were maintained in DMEM (Invitrogen™) supplemented with 10% fetal bovine serum and 1% penicillin/streptomycin. For protein expression in cell lines, cells were transfected with Calcium Phosphate Transfection reagent (Promega™, San Luis Obispo, Calif., USA) and used 24 h later as described previously (Yang et al., 2009). The JNK inhibitor, L-JNKI, was purchased from Alexis Biochemicals™ (San Diego, Calif.). Thrombin was obtained from BIOPUR™ (Bubendorf, Switzerland). Other assay reagents without indication were obtained from Sigma™.
Neuronal cultures were challenged with indicated concentrations of NMDA for 1 h, followed by 24 h survival. The release of lactate dehydrogenase (LDH) was measured with an in vitro toxicology assay kit (Sigma™) according to the manufacturer's instructions. Spectrophotometric measurement was performed on a Multilabel Plate Reader (Envision™ 2103, Perkin Elmer™). The LDH reading represents the primary absorbance at a wavelength of 490 nm after subtraction of background absorbance at 690 nm. LDH readings were then converted to a percentage of neuronal death by dividing by the readings from cultures incubated with 1% triton for 15 min representing total LDH. Following the LDH assay, propidium iodide (PI) (Sigma™) was added to the medium at a final concentration of 1 μg/ml and neurons were stained for 30 min at 30° C. After fixation with 4% paraformaldehyde, neurons were washed with 1×PBS and stained with Hoechst™ 33342 (Sigma™). The fluorescence of PI and Hoechst™ were examined with laser microscopy and analyzed with ImageJ™.

[1] = system: middle cerebral artery occlusion (MCAo); assay: transient MCAo in SD rats, adhesive removal test (ART); type: in vivo, Sprague-Dawley rat
Description: Adult male Sprague-Dawley (SD) rats weighing 250-290 g were employed for transient middle cerebral artery occlusion. Rats were anaesthetized with 5% isofluorane and maintained with 2% isofluorane in 70% N2O and 30% O2 using a face mask. 5 mg/kg ketoprofen was given pre-surgery to block pain. Rectal temperature was maintained at 37° C. during surgery with a homeothermic blanket system (Harvard Apparatus™, Holliston, Mass.). The scalp was incised at the midline and the skull was exposed. The skull was thinned with a dental drill at a region ipsilateral to the expected ischemia zone (2 mm posterior and 5 mm lateral from the bregma). A laser probe of the Doppler flowmeter (Perimed™, Jäffälla, Sweden) was placed at this location during surgery to detect cerebral blood flow (CBF) (Nagal et al., 2010). Transient MCAo was induced using a method of intraluminal vascular occlusion described elsewhere (Aarts et al., 2002; Belayev et al., 1996; and Longa et al., 1989). Briefly, a poly-L-lysine coated 3-0 monofilament nylon suture (Harvard Apparatus™, Holliston, Mass.) with a rounded tip was advanced from the left common carotid artery into the internal carotid artery until a sudden drop of CBF was noted, indicating the blockade of the origin of the MCA. The success of induction of ischemia was confirmed by a fall of CBF to less than 25% of baseline level and by neurological assessment scores during MCAo (1 h after the onset). Two hours after MCAo, rats were re-anaesthetized and the suture was removed to allow reperfusion, confirmed by the increase of CBF at the same area.
Peptides were synthesized by PepMetric Technologies™ or GL Biochem™ (Shanghai, China). Peptides were prepared freshly in saline on the day of experiment at a stock concentration of 1 mg/ml. 1 mg/kg peptides were administrated at indicated times (30 min before, 2 h after or 6 h after the onset of ischemia) by a single intravenous injection at rat tails. NIMoEscr or NIMoEsh were injected at 4 h after MCAo onset to randomly chosen rats. For long-term studies, peptides were given 2 h after MCAo onset. Injections of NIMoEscr and NIMoEsh were made, brain damage was assessed and functional evaluations performed in a double-blind manner To examine the delivery of the peptide into the brain, 5 mg/kg FITC-labelled NIMoE or only saline was intravenously injected 1 h before perfusion. The rats were then perfused with PBS followed by fixation solution (4% paraformaldehyde in PBS). Brains were removed, postfixed in fixation solution for 2 h and then soaked in 20% sucrose-PBS buffer at 4° C. for 24 h. After rapid freezing in Tissue-Tek™ embedding medium (Sakura™, Torrance, Calif.) on dry ice, 20 μm sections were cut on a cryostat (Leica™ CM3050, Ontario, Canada) and examined for FITC fluorescence by a laser microscopy (Zeiss™, Axiovert 200).
All animals were tested for neurological function during (1 h after onset) and 24 h after MCAo. Motor, sensory and coordination capacities were evaluated with modified Neurological Severity Scores (NSS) (Watanabe et al., 2004; Bederson et al., 1986). […] Coordination functions were assessed with 3 tests including a foot fault test, edge test and balance beam. Performance in the tests was evaluated on a cumulative scale from 0 to 2 (10 tests), except for two tests (tail suspension and balance beam in which scores ranged from 0 to Sand 0 to 4, respectively). […] The time spent on removing the tape from paw within 2 min was recorded.

[2] = system: middle cerebral artery occlusion (MCAo); assay: transient MCAo in SD rats, infarct volume (TTC histology); type: in vivo, Sprague-Dawley rat
[3] = system: middle cerebral artery occlusion (MCAo); assay: transient MCAo in SD rats, neurological scores; type: in vivo, Sprague-Dawley rat; parameters: key: summed neurological score, 0 to 27
[4] = peptide given 4 h after MCAo onset, day-1
[5] = peptide given 4 h after MCAo onset, day-3
[6] = peptide given 4 h after MCAo onset, day-7
[7] = peptide given 4 h after MCAo onset, day-14

“MTPLMWAAYRTHSVDPTRLL (listed as Homo sapiens) [NIMoE, peptide comprising motif-E of zD17, fused to the cell-membrane transduction domain of HIV-1 Tat for cell experiments]” was tested, and the “protection of neurons over NMDA concentrations” value (neuronal cultures; NMDA 10 μM to 100 μM) was “protected neurons against a broad range of NMDA concentrations”, the “excitotoxicity-induced cell death as measured by LDH release and PI staining” value (from here on “excitotoxicity-induced cell death”) (neuronal cultures) was “significantly prevented” and the “adhesive removal test (ART), contralateral side” value (“adhesive removal test (ART)” below) ([1]; injection +2 h) was 62.1 ± 8.60 s. For the same sequence, the “adhesive removal test (ART)” value ([1]; injection +4 h) was 60.83 ± 8.13 s and the “adhesive removal test (ART)” value ([1]; injection −0.5 h) was 48.62 ± 8.24 s.

“WAAYRTHSVD (listed as Homo sapiens) [NIMoEsh, shorter 10mer of NIMoE, primarily the loop region of motif-E (zD17 196-205)]” was tested, and the “excitotoxicity-induced cell death” value (neuronal cultures) was “significantly prevented”, the “infarct volume compared with non-treated, saline-treated and scramble peptide-treated groups” value ([2]; post-surgical interventions at 2 h or 4 h) was “effective protection for the ischemic brain” and the total infarct volume ([2]; single i.v. injection +2 h after MCAo onset) was 41.95±8.22 mm^3. For the same sequence, the total infarct volume ([2]; single i.v. injection +4 h after MCAo onset) was 78.74±28.50 mm^3, the total infarct volume ([2]; single i.v. injection −0.5 h (before MCAo onset), control 240.70±35.67) was 43.43±9.82 mm^3 and the “reduction of total infarct size” value ([2]; single intravenous injection 30 min before MCAo) was “about 80%”. The “somatosensory functions in ART” value ([1]; MCAo rats) was “large preservation of somatosensory functions”, the neurological scores ([3]; 22 h after onset of MCAo, injection +2 h) was 8.50±0.75 and the neurological scores ([3]; 22 h after onset of MCAo, injection +4 h) was 11.20±1.49. The neurological scores ([3]; 22 h after onset of MCAo, injection −0.5 h, scale 0 to 27) was 8.00±0.72, the neurological scores [3, 4] was 11.43±1.96 and the neurological scores [3, 5] was 5.86±1.14. For the same sequence, the neurological scores [3, 6] was 1.71±0.47 and the neurological scores [3, 7] was 0.85±0.34.

“HRYRWLTDLLSMVTTPAAPM (NIMoEscr scrambled NIMoE) [negative control peptide resulting from a scrambled NIMoE, reference compound]” was tested, and the “excitotoxicity-induced cell death” value (neuronal cultures) was “no protective effects”, the total infarct volume ([2]; scrambled control peptide group, injection time not given) was 212.60±37.6 mm^3 and the “adhesive removal test (ART)” value ([1]; scrambled control peptide group) was 10.80 ± 2.06 s. For the same sequence, the neurological scores ([3]; 22 h after onset of MCAo, scrambled control peptide group) was 18.60±1.24, the neurological scores [3, 4] was 19.25±0.80 and the neurological scores [3, 5] was 13.63±1.03. The neurological scores [3, 6] was 7.13±0.58 and the neurological scores [3, 7] was 4.38±0.50.
